Patent US9024013B2, “Method for purifying rocuronium bromide” (Zhejiang Huahai Pharmaceutical Co., Ltd, priority 2011, dated 2015)

Experiment: Storage stability at room temperature of rocuronium bromide samples (related substances by HPLC)
Type: physicochemical
Conditions: for Impurity A, substances involved (HPLC) / Impurity C, substances involved (HPLC) / Total impurities, substances involved (HPLC) / Single unknown impurity, substances involved (HPLC): room temperature storage

SMILES: C=CC[N+]1([C@H]2C[C@H]3[C@@H]4CC[C@H]5C[C@H](O)[C@@H](N6CCOCC6)C[C@]5(C)[C@H]4CC[C@]3(C)[C@H]2OC(C)=O)CCCC1 [rocuronium bromide]
- hydrolyzed impurities after storage (versus USP33 limits) (moisture 4% or more, storage period of about 10 days at room temperature): out of limits
- levels of impurities after storage (moisture controlled to about 0.5%, storage period of one month at room temperature): substantially unchanged
- level of impurities after storage (purified by the method of the invention, moisture 4% or less, preferably 0.5% or less, one month at room temperature): substantially unchanged
- Impurity A, substances involved (HPLC) (sample moisture 0.5%, Day 0): 0.02%
- Impurity C, substances involved (HPLC) (sample moisture 0.5%, Day 0): 0.06%
- Total impurities, substances involved (HPLC) (sample moisture 0.5%, Day 0): 0.08%
- Impurity A, substances involved (HPLC) (sample moisture 0.5%, Day 10): 0.02%
- Impurity C, substances involved (HPLC) (sample moisture 0.5%, Day 10): 0.06%
- Total impurities, substances involved (HPLC) (sample moisture 0.5%, Day 10): 0.08%
- Impurity A, substances involved (HPLC) (sample moisture 0.5%, Day 20): 0.03%
- Impurity C, substances involved (HPLC) (sample moisture 0.5%, Day 20): 0.06%
- Total impurities, substances involved (HPLC) (sample moisture 0.5%, Day 20): 0.09%
- Impurity A, substances involved (HPLC) (sample moisture 0.5%, Day 30): 0.03%
- Impurity C, substances involved (HPLC) (sample moisture 0.5%, Day 30): 0.06%
- Total impurities, substances involved (HPLC) (sample moisture 0.5%, Day 30): 0.09%
- Impurity A, substances involved (HPLC) (sample moisture 4.5%, Day 0): 0.02%
- Impurity C, substances involved (HPLC) (sample moisture 4.5%, Day 0): 0.06%
- Total impurities, substances involved (HPLC) (sample moisture 4.5%, Day 0): 0.08%
- Impurity A, substances involved (HPLC) (sample moisture 4.5%, Day 10): 0.25%
- Impurity C, substances involved (HPLC) (sample moisture 4.5%, Day 10): 0.36%
- Single unknown impurity, substances involved (HPLC) (sample moisture 4.5%, Day 10): 0.12%
- Total impurities, substances involved (HPLC) (sample moisture 4.5%, Day 10): 0.73%
- Impurity A, substances involved (HPLC) (sample moisture 4.5%, Day 20): 0.30%
- Impurity C, substances involved (HPLC) (sample moisture 4.5%, Day 20): 0.40%
- Single unknown impurity, substances involved (HPLC) (sample moisture 4.5%, Day 20): 0.20%
- Total impurities, substances involved (HPLC) (sample moisture 4.5%, Day 20): 0.90%
- Impurity A, substances involved (HPLC) (sample moisture 4.5%, Day 30): 0.35%
- Impurity C, substances involved (HPLC) (sample moisture 4.5%, Day 30): 0.50%
- Single unknown impurity, substances involved (HPLC) (sample moisture 4.5%, Day 30): 0.20%
- Total impurities, substances involved (HPLC) (sample moisture 4.5%, Day 30): 1.05%
